The results in this text go back to patent US5185366A, “Method for treatment and prevention of diseases caused by enveloped viruses, including herpes simplex virus types 1 and 2 diseases, using 3,4-dihydroxy-2H-benzopyran-2H-one” (Ohio State University Research Foundation, priority 1990, dated 1993).

In data set [1] the test system is HSV-2. Description: Extracellular activity, inhibition of plaque forming units, HSV-2. To be noted: for inhibition at 0.4 µM: Human alphaherpesvirus 2, read-out: % Inhibition of PFU, EA (extracellular activity), HSV-2, 0.4 μmol/L; for inhibition at 1.6 µM: Human alphaherpesvirus 2, read-out: % Inhibition of PFU, EA (extracellular activity), HSV-2, 1.6 μmol/L; for inhibition at 2.5 µM: Human alphaherpesvirus 2, read-out: % Inhibition of PFU, EA (extracellular activity), HSV-2, 2.5 μmol/L.

Data set [2] can be described thus: Inhibition of cell growth (microscopic cell count). The note with it: monkey, bgm-70 cells, read-out: % Reduction of cell growth; for inhibition at 24 h, 0.4 µM / inhibition at 48 h, 0.4 µM: 0.4 μmol/L; for inhibition at 24 h, 1.6 µM / inhibition at 48 h, 1.6 µM: 1.6 μmol/L; for inhibition at 24 h, 2.5 µM / inhibition at 48 h, 2.5 µM: 2.5 μmol/L; for inhibition at 24 h, 10 µM / inhibition at 48 h, 10 µM: 10.0 μmol/L. Type of data set: cell-based, Buffalo green monkey. Here is the method: a MASHII cell harvester and placed in a scintillation counter to determin
incorporation of labelled compound and level of toxicity. BGM 70 cells ar
seeded at a concentration of […] per well in a 24well tissue cultur
plate. Cells are planted in 2 mL of growth medium with or without the tes
compound and are incubated at 37° C. for 38 hours. At 24 hours
medium is removed from onehalf of the plates and the cells are fixed and
stained with crystal violet. The remaining cultures are fixed and stained
^b BGM 70 cells are counted microscopically and comparisons are made.
Experiments are performed blindly by assigning each compound concentratio
a letter code. The code is broken after the cells are counted.
The effect of the compounds on the inhibition of cell growth is determined using BGM-70 cells grown in vitro. For this assay, BGM 70 cells are seeded at a concentration of approximately 70 cells per well in 24-well tissue culture plates. Cells are planted in 2 ml of growth medium with or without the test compound and are incubated at 37° C. for 48 hours. At 24 hours, cells from one half of the plates are fixed and stained with crystal violet. The remaining cultures are fixed and stained at 48 hours. Cells are counted microscopically and comparisons are made between non-treated (control) and treated cells.

The subject of data set [3] is Buffalo green monkey kidney (BGM 70) cells. Description: [3H]-thymidine uptake cytotoxicity. Type of data set: cell-based. To be noted: for inhibition at 0.4 µM / inhibition at 1.6 µM / inhibition at 2.5 µM / inhibition at 10 µM: Chlorocebus sabaeus, read-out: % Inhibition of [3H]-Thymidine Incorporated; for inhibition at 0.4 µM: 0.4 μmol/L; for inhibition at 1.6 µM: 1.6 μmol/L; for inhibition at 2.5 µM: 2.5 μmol/L; for inhibition at 10 µM: 10.0 μmol/L.

Data set [4] has as its system HSV-2. Description: Intracellular activity, inhibition of plaque forming units, HSV-2. Format: cell-based, Herpes simplex virus type 2. The note with it: read-out: % Inhibition of PFU, IA (intracellular activity); for inhibition at 0.4 µM: Human alphaherpesvirus 2, HSV-2, 0.4 μmol/L; for inhibition at 1.6 µM: Human alphaherpesvirus 2, HSV-2, 1.6 μmol/L.
[5] abbreviates: at concentrations of 10 μM or less.

Like-named read-outs stand apart in the source and are kept apart here.

For `O=c1oc2ccc(Cl)cc2c(O)c1O` [Compound 6], in the data set on HSV-2 [1], the inhibition at 0.4 µM is 1.5 ± 0.8%, the inhibition at 1.6 µM is 1.2 ± 0.6% and the inhibition at 2.5 µM was 0.4 ± 0.1%. In data set [2] (24 h), the inhibition at 24 h, 0.4 µM came to 21 ± 1%; the inhibition at 24 h, 1.6 µM was 20 ± 6.2%; the inhibition at 24 h, 2.5 µM came out at 56 ± 12%. In addition, in data set [2] (48 h), the inhibition at 48 h, 0.4 µM amounted to 12 ± 6.5%; the inhibition at 48 h, 1.6 µM was determined as 30 ± 13.1%; the inhibition at 48 h, 2.5 µM was determined as 58 ± 9.4%. Further, in data set [3] (24 h), the inhibition at 0.4 µM was determined as 11.1 ± 9.1%, the inhibition at 1.6 µM worked out at 31.1 ± 5.8%, the inhibition at 2.5 µM amounted to 17.8 ± 2% and the inhibition at 10 µM stood at 90 ± 1.4%. Besides, in data set [3] (48 h), the inhibition at 0.4 µM worked out at 16.7 ± 8.4%, the inhibition at 1.6 µM is 46.8 ± 9%, the inhibition at 2.5 µM turned out to be 20 ± 3.3% and the inhibition at 10 µM was 99.2 ± 0.8%. Further, in data set [3] (72 h), the inhibition at 0.4 µM worked out at 31.8 ± 12%, the inhibition at 1.6 µM came out at 41.4 ± 14%, the inhibition at 2.5 µM came out at 17 ± 5% and the inhibition at 10 µM worked out at 99.2 ± 0.8%. In data set [3] (setting [5]), the “toxicity ([3H]-thymidine uptake and/or cell growth)” value (“toxicity” for short) is on record as “display toxicity”. Also, in the data set on HSV-2 [4], the inhibition at 0.4 µM was 3 ± 1.1% and the inhibition at 1.6 µM worked out at 10 ± 4.6%.

With `O=c1oc2cc3c(cc2c(O)c1O)OCO3` [Compound 8], the inhibition at 2.5 µM in the data set with HSV-2 [1] came out at 3 ± 1%; in the data set with HSV-2 [4] (Human alphaherpesvirus 2, HSV-2, 2.5 μmol/L) it was 1 ± 0.2%. Besides, the inhibition at 10 µM in the data set with HSV-2 [1] (Human alphaherpesvirus 2, read-out: % Inhibition of PFU, EA (extracellular activity), HSV-2, 10.0 μmol/L) came to 16 ± 8%; in the data set on HSV-2 [4] (Human alphaherpesvirus 2, HSV-2, 10.0 μmol/L), 6.1 ± 1%. The inhibition at 24 h, 2.5 µM in data set [2] (24 h) came to 2 ± 0.6%. Moreover, in data set [2] (24 h), the inhibition at 24 h, 10 µM amounted to 6.6 ± 1%. In addition, in data set [2] (24 h, 50.0 μmol/L), the inhibition at 24 h, 50 µM amounted to 54 ± 2%. In addition, in data set [2] (24 h, 100.0 μmol/L), the inhibition at 24 h, 100 µM was 68 ± 7.6%. Moreover, in data set [2] (48 h), the inhibition at 48 h, 2.5 µM was 4.2 ± 3.6%. For the same molecule, in data set [2] (48 h), the inhibition at 48 h, 10 µM amounted to 8.1 ± 2.1%. Moreover, the inhibition at 48 h, 50 µM in data set [2] (48 h, 50.0 μmol/L) amounted to 52.2 ± 9.1%. The inhibition at 48 h, 100 µM in data set [2] (48 h, 100.0 μmol/L) came to 71 ± 8.1%. The “toxicity” value in data set [3] (at 10 μM) was “no toxicity”.

In the case of `CC1(c2ccc(Cl)cc2)OC(=O)C(O)=C1O` (racemic) [Compound 1], in the data set with HSV-2 [1], the inhibition at 0.4 µM worked out at 0% and the inhibition at 1.6 µM turned out to be 1.5 ± 0.1%. Besides, in data set [2] (24 h), the inhibition at 24 h, 0.4 µM was determined as 12 ± 4%; the inhibition at 24 h, 1.6 µM amounted to 54 ± 8.6%; the inhibition at 24 h, 2.5 µM is 60 ± 9.1%. For the same molecule, in data set [2] (48 h), the inhibition at 48 h, 0.4 µM came to 16 ± 3.6%; the inhibition at 48 h, 1.6 µM was determined as 67 ± 12.1%; the inhibition at 48 h, 2.5 µM is 90 ± 4.6%. Besides, in data set [3] (24 h), the inhibition at 0.4 µM was found to be 0%, the inhibition at 1.6 µM was 16.7 ± 12.7%, the inhibition at 2.5 µM worked out at 66.7 ± 5.8% and the inhibition at 10 µM is 95 ± 0.4%. In addition, in data set [3] (48 h), the inhibition at 0.4 µM was 0%, the inhibition at 1.6 µM turned out to be 14.5 ± 15.5%, the inhibition at 2.5 µM turned out to be 74.3 ± 9.3% and the inhibition at 10 µM was 98.6 ± 0.5%. In data set [3] (72 h), the inhibition at 0.4 µM was 0%, the inhibition at 1.6 µM came to 39.9 ± 15.7%, the inhibition at 2.5 µM worked out at 53.9 ± 16.3% and the inhibition at 10 µM was determined as 98.2 ± 0.8%. In addition, the “toxicity” value in data set [3] (setting [5]) is “display toxicity”. In the data set with HSV-2 [4], the inhibition at 0.4 µM came out at 0% and the inhibition at 1.6 µM worked out at 8 ± 2.4%.

`O=C1OC2(CCCCC2)C(O)=C1O` [Compound 4, 4-spiro-2-hydroxytetronic acid]: in the data set on HSV-2 [1], the inhibition at 0.4 µM is 2 ± 1% and the inhibition at 1.6 µM came out at 1.8 ± 0.2%. In data set [2] (24 h), the inhibition at 24 h, 0.4 µM turned out to be 6 ± 1.1%; the inhibition at 24 h, 1.6 µM came to 21 ± 12%; the inhibition at 24 h, 2.5 µM was 37 ± 9.4%; the inhibition at 24 h, 10 µM came to 88 ± 6.1%. In data set [2] (48 h), the inhibition at 48 h, 0.4 µM is 8.4 ± 3.6%; the inhibition at 48 h, 1.6 µM came out at 22 ± 6.1%; the inhibition at 48 h, 2.5 µM came out at 59 ± 12.4%; the inhibition at 48 h, 10 µM came out at 86 ± 6.1%. For the same molecule, the “toxicity” value in data set [3] (setting [5]) is reported as “display toxicity”.
